The nature of the first series: pH of peptide solutions in DMSO/D5W, with succinate, and with Hiltonol. Type of series: physicochemical.
Conditions: not given
For H-YLLPKTAVVLRCPALRVRKP-OH [CS7418], the “pH of peptides in DMSO/D5W” value is 3.98; the “pH of peptides in DMSO/D5W/5mM S. Succinate spike” value stood at 6.76; the “pH of peptides in DMSO/D5W/5nnM Succinate and Hiltonol” value is 6.96.

As to “H-LLTDRNTSGTTFTLLGVSDYPELQVP-OH [CS7409]”, the “pH of peptides in DMSO/D5W” value came out at 3.86; the “pH of peptides in DMSO/D5W/5mM S. Succinate spike” value was 6.32; the “pH of peptides in DMSO/D5W/5nnM Succinate and Hiltonol” value is recorded as 6.62.

As for “H-GTYLQGTASALSQSQERPPSVNRVPPSSPSSQE-OH [CS6725]”, the “pH of peptides in DMSO/D5W” value is 3.95.

“H-VQLSIQDVIRRARLSTVPTAQRVALRSGWI-OH [CS7413]”: the “pH of peptides in DMSO/D5W” value turned out to be 3.9; the “pH of peptides in DMSO/D5W/5mM S. Succinate spike” value was determined as 6.73; the “pH of peptides in DMSO/D5W/5nnM Succinate and Hiltonol” value came out at 7.02.

On to “H-LPVFIGNIAVNHAPVSLRPGLGLPPGAPPGTVP-OH [CS7438]”, for which the “pH of peptides in DMSO/D5W” value came to 4.24; the “pH of peptides in DMSO/D5W/5mM S. Succinate spike” value is on record as 6.78; the “pH of peptides in DMSO/D5W/5nnM Succinate and Hiltonol” value was found to be 6.96.

As to H-WDGPPENDMLLKEICGSLIP-OH [CS7432], the “pH of peptides in DMSO/D5W” value was determined as 3.72; the “pH of peptides in DMSO/D5W/5mM S. Succinate spike” value is listed as 6.22; the “pH of peptides in DMSO/D5W/5nnM Succinate and Hiltonol” value came to 6.45.

As to H-AESAQRQGPLGGGEQSANEF-OH [CS7417], the “pH of peptides in DMSO/D5W” value is given as 3.82; the “pH of peptides in DMSO/D5W/5mM S. Succinate spike” value came out at 6.28; the “pH of peptides in DMSO/D5W/5nnM Succinate and Hiltonol” value amounted to 6.5.

In the case of “H-GTKALQLHSIAGRWPRMEPWVVESMSLGVP-OH [CS7415]”, the “pH of peptides in DMSO/D5W” value worked out at 3.91; the “pH of peptides in DMSO/D5W/5mM S. Succinate spike” value is recorded as 6.61; the “pH of peptides in DMSO/D5W/5nnM Succinate and Hiltonol” value is listed as 6.81.

Consider “H-SGQPAPEETVLFLGLLHGLLLILRRLRGG-OH [CS6937]”, for which the “pH of peptides in DMSO/D5W” value is given as 3.87; the “pH of peptides in DMSO/D5W/5mM S. Succinate spike” value worked out at 6.51; the “pH of peptides in DMSO/D5W/5nnM Succinate and Hiltonol” value was determined as 6.76.

For “H-RGLHSQGLGRGRIAMAQTAGVLRSLEQEE-OH [CS6711]”, the “pH of peptides in DMSO/D5W” value came out at 3.82.

For “H-DSAVDKGHPNRSALSLTPGLRIGPSGLFLVFLA-OH [CS7411]”, the “pH of peptides in DMSO/D5W” value is recorded as 3.87; the “pH of peptides in DMSO/D5W/5mM S. Succinate spike” value amounted to 6.53; the “pH of peptides in DMSO/D5W/5nnM Succinate and Hiltonol” value came out at 6.94.

Consider “H-LRVFIGNIAVNHAPVSLRPGLGLPPGAPPGTVP-OH [CS7412]”, for which the “pH of peptides in DMSO/D5W” value amounted to 4.24; the “pH of peptides in DMSO/D5W/5mM S. Succinate spike” value came to 6.61; the “pH of peptides in DMSO/D5W/5nnM Succinate and Hiltonol” value came to 6.96.

Consider “H-LPVFIGNIAVNHAPVSLRPGLGLPPGAPPLVVP-OH [CS6730]”, for which the “pH of peptides in DMSO/D5W” value stood at 4.20.

For “H-LLTDRNTSGTTFTLLGVSDYPELQVPIPQAGLG-OH [CS7408]”, the “pH of peptides in DMSO/D5W” value turned out to be 3.89; the “pH of peptides in DMSO/D5W/5mM S. Succinate spike” value is listed as 6.31; the “pH of peptides in DMSO/D5W/5nnM Succinate and Hiltonol” value came out at 6.75.

For the substance H-SYDSVIRELLQKPNVRVVVL-OH [CS7425], the “pH of peptides in DMSO/D5W” value is 3.78; the “pH of peptides in DMSO/D5W/5mM S. Succinate spike” value was determined as 6.44; the “pH of peptides in DMSO/D5W/5nnM Succinate and Hiltonol” value is 6.65.

Take H-IGALNPKRAAFFAEHYESWE-OH [CS7420]: the “pH of peptides in DMSO/D5W” value stood at 3.84; the “pH of peptides in DMSO/D5W/5mM S. Succinate spike” value turned out to be 6.38; the “pH of peptides in DMSO/D5W/5nnM Succinate and Hiltonol” value came out at 6.56.

H-VEQGHVRVGPDVVTHPAFLV-OH [CS7427]: the “pH of peptides in DMSO/D5W” value is reported as 3.72; the “pH of peptides in DMSO/D5W/5mM S. Succinate spike” value is on record as 6.34; the “pH of peptides in DMSO/D5W/5nnM Succinate and Hiltonol” value was determined as 6.52.

As to “H-EPDQEAVQSSTYKDCNTLHLPTERFSPVR-OH [CS6710]”, the “pH of peptides in DMSO/D5W” value is 3.65.

Take H-PLMQTELHQLVPEADPEEMA-OH [CS7430]: the “pH of peptides in DMSO/D5W” value was 3.95; the “pH of peptides in DMSO/D5W/5mM S. Succinate spike” value was found to be 6.23; the “pH of peptides in DMSO/D5W/5nnM Succinate and Hiltonol” value was 6.37.

Turning to “H-PIQVFYTKQPQNDYLHVALVSVFQIHQEAPSSQ-OH [CS6729]”, the “pH of peptides in DMSO/D5W” value was found to be 3.87.

As for “H-KPKKVAGAATPKKSIKRTPKKVKKPATAAGTKK-OH [CS6717]”, the “pH of peptides in DMSO/D5W” value came to 4.65.

Turning to “H-SKLPYPVAKSGKRALARGPAPTEKTPHSGAQLG-OH [CS6719]”, the “pH of peptides in DMSO/D5W” value was 3.94.

As to H-KKNITNLSRLVVRPDTDAVY-OH [CS7431], the “pH of peptides in DMSO/D5W” value came to 3.8; the “pH of peptides in DMSO/D5W/5mM S. Succinate spike” value was 6.45; the “pH of peptides in DMSO/D5W/5nnM Succinate and Hiltonol” value was determined as 6.69.

“H-PPYPYSSPSLVLPTEPHTPKSLQQPGLPS-OH [CS6715]”: the “pH of peptides in DMSO/D5W” value is given as 4.11.

In the case of “H-KGASLDAGWGSPRWTTTRMTSASAGRSTRA-OH [CS7414]”, the “pH of peptides in DMSO/D5W” value turned out to be 3.81; the “pH of peptides in DMSO/D5W/5mM S. Succinate spike” value amounted to 6.71; the “pH of peptides in DMSO/D5W/5nnM Succinate and Hiltonol” value is 6.99.

In the case of “H-ALSLTPGLRIGPSGLFLVFLAESAVDKGHPNRS-OH [CS7410]”, the “pH of peptides in DMSO/D5W” value stood at 3.99; the “pH of peptides in DMSO/D5W/5mM S. Succinate spike” value came out at 6.46; the “pH of peptides in DMSO/D5W/5nnM Succinate and Hiltonol” value is listed as 6.88.

The nature of the next series: physchem. As to conditions: pH 6.
In the case of H-TTTSVKKEELVLSEEDFQGITPGAQ-OH, the solubility is < 2000 µg/mL.

With H-PSTANYNSFSSAPMPQIPVASVTPT-OH, the solubility was > 2000 µg/mL.

With H-TTSGDERLYPSPTFYIHENYLQLFE-OH, the solubility is < 2000 µg/mL.

Turning to H-PASAKSRREFDKIELAYRR-OH, the solubility is > 2000 µg/mL.

As for H-DPDVGVNSLQQYYLSPDLHFSLI-OH, the solubility was < 2000 µg/mL.

Turning to H-LGETMGQVTEKLQPTYMEET-OH, the solubility is > 2000 µg/mL.

Turning to H-TKLKSKAPHWTNCILHEYKNLSTS-OH, the solubility was > 2000 µg/mL.

Take H-DGGRQHSGPRRHSGAGPKPSSSEWAVCWAP-OH: the solubility is > 2000 µg/mL.

With H-GLEQLESIINFEKL-OH, the solubility was > 2000 µg/mL.

H-DDSLHIQATYISGPVLAGSGD-OH: the solubility is > 2000 µg/mL.

For H-TFPKKIQMLARDFLDEY-OH, the solubility was > 2000 µg/mL.

For the substance H-STQHADLTIIDNIKEMNFLRRYK-OH, the solubility was > 2000 µg/mL.

For H-LENNANHDETSFLLPRKESNIVD-OH, the solubility was > 2000 µg/mL.

For the substance H-EVVGGYTWPSGNIYQGYWAQGKR-OH, the solubility was > 2000 µg/mL.

In the case of H-ALLQNVELRRNVLVSPTPLAN-OH, the solubility is > 2000 µg/mL.

As to H-SSPLGRANGRRFANPRDSFSAMGFQR-OH, the solubility was > 2000 µg/mL.

Turning to H-RRGGALFASRPRFTPL-OH, the solubility was > 2000 µg/mL.

For H-ADRRRQRSTFRAVLHFVEGGESEE-OH, the solubility is < 2000 µg/mL.

Turning to H-VPDINMEKKLRKIRAQTQKHLDLYARDG-OH, the solubility is > 2000 µg/mL.

H-SERYIGTEGGGMDQSILFLAEEGTAK-OH: the solubility was < 2000 µg/mL.

Turning to H-YPEPQNKEAFVHSQMYSTDYDQI-OH, the solubility is > 2000 µg/mL.

Regarding H-MPPPGALMGLALKKKSIPQPTN-OH, the solubility is > 2000 µg/mL.

As for H-GDQYKATDFVADWAGTFKMVFTPKDGSG-OH, the solubility was > 2000 µg/mL.

As to H-LRVFIGNIAVNHAPVSLRPGLGLPPGAPPGTVP-OH, the solubility is < 2000 µg/mL.

For the substance H-STEVEPKESPHLARHRHLMKTLVKSLST-OH, the solubility was > 2000 µg/mL.

Turning to H-KHLPGVNFPGNQWNPVEGILPS-OH, the solubility is > 2000 µg/mL.

Turning to H-TIKNSDKNVVLEHFG-OH, the solubility was > 2000 µg/mL.

A word on the solubility: it is the concentration that dissolves in the medium under given conditions. A lower solubility goes with little dissolved substance.
